Measurements taken from the NIST ThermoML archive (doi:10.1016/j.jct.2015.10.026).
± gives the expanded uncertainty stated by the source.

Key:
[1] = 101.33 kPa, Liquid; for electrical conductivity: Direct current cell with electrodes; for mass density: Vibrating tube method
[2] = mn = molality of the nth substance listed, in mol/kg; conditions: 100 kPa, Liquid, Capillary tube (Ostwald / Ubbelohde) method, m2 = 0

CCCCn1cc[n+](C)c1.NCCS(=O)(=O)[O-] [1-butyl-3-methylimidazolium taurate]
[1], Cone and plate viscometry
Conditions | viscosity [mPa·s]
293.15 K | 1761.4 ± 130
298.15 K | 1169.2 ± 78
303.15 K | 799.87 ± 48
308.15 K | 561.88 ± 30
313.15 K | 405.34 ± 19
318.15 K | 298.26 ± 13
323.15 K | 224.97 ± 8.9

[1]
Conditions | electrical conductivity [S/m] | mass density [kg/m3]
293.15 K | 0.0098 ± 0.0003 | 1195.4 ± 4.9
298.15 K | 0.0161 ± 0.0005 | 1192.1 ± 4.9
303.15 K | 0.0257 ± 0.0008 | 1188.77 ± 4.9
308.15 K | 0.0356 ± 0.0011 | 1185.4 ± 4.8
313.15 K | 0.0518 ± 0.0016 | 1182.02 ± 4.8
318.15 K | 0.0697 ± 0.0021 | 1178.53 ± 4.8
323.15 K | 0.0922 ± 0.0028 | 1175.06 ± 4.7

O [water]
[1], Capillary tube (Ostwald / Ubbelohde) method
Conditions | viscosity [mPa·s]
293.15 K | 1.003 ± 0.021
298.15 K | 0.89 ± 0.019
303.15 K | 0.797 ± 0.017
308.15 K | 0.719 ± 0.015
313.15 K | 0.653 ± 0.014

O [water] + CCCCn1cc[n+](C)c1.NCCS(=O)(=O)[O-]
[2]
Conditions | viscosity [mPa·s]
293.15 K | 1.003 ± 0.021
298.15 K | 0.89 ± 0.019
303.15 K | 0.797 ± 0.017
308.15 K | 0.719 ± 0.015
313.15 K | 0.653 ± 0.014
